Source: patent US8389468B2, “Approach to the treatment of compartment syndrome” (Lantmannen AS-Faktor AB, priority 2006, dated 2013)
Entries after “also recorded” stand apart in the source; their conditions may differ.

How the values were obtained:
[1] = test system: ICP after subarachnoidally deposited blood; experiment: Cerebral CS induced by autologous blood in the subarachnoid space, ICP; type: in vivo, Sprague-Dawley rats
Source text: A different type of cerebral CS was induced by the injection of […] whole blood in the subarachnoid space, a procedure known from the literature to result in the development of brain oedema and elevated ICP. Anaesthetized adult rats had 50-350 pL heparinzed autologous blood deposited in the subarachnoid space through a small hole drilled in the occipital bone or by injection into the cistern magna through the atlanto-occipital membrane. Holes drilled in a skull bone were eventually plugged with SuperBond@ glue. Such treatments with subarachnoidally deposited blood increased the ICP, inducing the development of a CS in a day or within a week, the exact time depending on the conditions and amount of blood deposited, in agreement with reports in the medical literature. In our experiments, injection of 0.2-0.3 mL autologous, heparinized blood in the cisterna magna in adult Sprague-Dawley rats resulted within 1-3 days in an elevation of the ICP to 13 to 30 mm Hg, as assessed with an implanted miniature pressure light guided probe (Samba System 3200 & Samba Preclin 420 sensor; Samba Sensors AB, Gruvgatan 6, SE 42130 V. Frolunda, Sweden). The ICP in normal adult rats, either non-treated or having had phosphate buffered saline (PBS) injected instead, was 6-9 mm Hg. […] This means that AF-16 is abolishing and, in case of already established cerebral CS, reducing its severity. The prompt response to AF-16 was decisive for the beneficial effect exerted by AF-16.

intervertebral discs = experiment: Injured or loaded intervertebral discs; type: in vivo, rodents, rabbits and pigs
Source text: The intervertebral discs, which separate the vertebral bodies in the spine, adjust their dimensions according to the actual load many times a day. The water content in the avascular nucleus pulposus and the annulus fibrosus in a disc is dependant on the supply of fluid, ions, nutrients and oxygen from adjacent ligaments and from the end plates of the vertebrae (Cf. Holm et al., 2007). Vast products from an avascular disc must pass through the same obstacles prior to reaching vascular systems. Therefore, rodents, rabbits and pigs have been assessed regarding effects of AF protein and of AF peptides with regard to effects on the intervertebral discs when loaded and unloaded. […] It is thus disclosed that the AF compounds are beneficial in reducing the swelling and tissue damage at trauma or deformation and/or excessive load on intervertebral discs.

pericardium = experiment: Traumatized pericardium, fluid accumulation; type: in vivo, rat; details: treated for a week after rubbing of pericardium
Source text: Adult rats had experimentally a CC condition induced affecting the pericardium and assessed with regard to effects of treatment with the peptide AF-16. The pericardial cavity is delimiting the heart, forming a sac filled with a minimal volume of fluid, enabling accommodation of the sliding movements resulting from the sudden and forceful contractions of the heart. The pericardial cavity is towards its periphery enclosed by a parietal membrane rich in collagen. On anaesthetized rats the pericardium was opened surgically, through a small “window” in the diaphragm and mediastinum. The inside of the pericardium was traumatized by rubbing it surgically through the incision. These animals were divided in two groups, one treated with AF-16 while the other had just the vehicle, PBS. […] In contrast, those animals that after the rubbing had been treated with the vehicle had their pericardium filled with fluid under pressure, and had further numerous fibrin strands and inflammatory cells. Additionally, the parietal pericardial envelop was swollen, inflamed and infiltrated by numerous enlarged, in parts newly formed blood vessels.

HSV-1 = experiment: PCR of HSV-1 DNA copies in brain tissue, rats; type: in vivo, rat; details: 1 or 10 pg intranasally twice daily
Source text: FIG. 5: Quantitative PCR performed on brain tissues from rats infected in their right nostril with HSV-1. The brain specimens were obtained between 5 to 14 days after virus inoculation in the right nostril.
The improved survival of the HSV-1 infected rodents, as illustrated in example #2, could tentatively be due to that AF-16 blocked or at least reduced the proliferation of HSV1 virus in the infected brain. Therefore, adult rats were infected by having a solution of the herpes simplex virus type 1 (HSV-1; strain 2762, batch 041028; 1.7×10^7 PFU/mL) instilled in their right nostril. Half of the infected animals received 10 min later 25 pL (1 or 10 pg) of AF-16 in their right nostril, and had thereafter the same dose of AF-16 instilled every morning at 8 AM and every night at 6 PM until the experiment was terminated on day 6. The other groups of the HSV-1 infected rats received at the same time intervals 25 μL of the vehicle, PBS. The animals were closely watched for signs of general sickness and of behavioral and motor dysfunction. The animals were sacrificed by an overdose of anesthetics on day 6, the skull was then rapidly opened and the brain removed. […]

sciatic nerve = experiment: Sciatic nerve crush, intraneural pressure; type: in vivo, rat
Source text: Peripheral and autonomic nerves are all delimited by an endoneurium, an perineurium and outermost an epineurium. Multiple nerve fascicles form a nerve (Cf. Hansson et al., 1987). Tendons and some of the ligaments in a body are delimited by a tender collagen membrane-like structure, the synovial sheath. The inner border layer of the latter connect the tendon with its synovial vagina, which enable sliding at minimal friction. The periphery of the latter structure is enclosed by a fibrous, membrane-like layer, the fibrous vagina. The enclosing paratendinium is in some locations hold in position and receiving nutrition by mesotendons and by vinculae (Cf. Hansson et al., 1980). […] Such a procedure resulted not only in impaired nerve function and structure but also in impaired blood and lymph circulation, and caused swelling of the sciatic nerve, the development of oedema, which included adjacent and enveloping structures, The IFP turned elevated, as assessed by the insertion of a Samba fibre optic pressure measuring probe in the affected tissue. […] The pressure in the perineurium was determined to become elevated in a day in those treated with just the vehicle, in agreement with the macroscopically recognized swelling and local oedema, i.e. having developed a CS. […]

For VCHSKTRSNPENNVGL [AF-16], the ICP after treatment ([1]; 25 pg AF-16 intranasally twice daily) was “almost normal levels”, the “brain, behavioral and motor function” value ([1]; 25 pg AF-16 intranasally twice daily, vs vehicle) was “neither signs of impaired brain function nor any gross obvious impairment of behavioral or motor functions” and the “time for elevated ICP to turn to almost normal levels” value ([1]; 25 pg AF-16 intranasally twice daily, elevated ICP 13 to 30 mm Hg, normal 6-9 mm Hg) was 1 to 2 h. For the same sequence, the “extent and severity of brain damage” value ([1]; vs vehicle PBS) was “reduced the extent and severity of the brain damage”, the “stiffness of intervertebral connections and deformation induced” value (intervertebral discs; after supramaximal loads or trauma, vs vehicle) was “closer to normal” and the “damage to nucleus pulposus (light microscopy)” value (intervertebral discs; in vivo) was “less damage to the nucleus pulposus”. The “swelling and inflammatory reactions of injured intervertebral discs” value (intervertebral discs; in vivo) was “reduced the swelling and the inflammatory reactions”, the “fluid in pericardial cavity” value (pericardium) was “just minor accumulation of fluid in their pericardial cavity, at low pressure” and the “HSV-1 DNA copies in brain tissue vs vehicle” value (HSV-1) was “no significant difference with regard to prevalence and distribution of HSV-1 DNA copies; also recorded: does not significantly affect the HSV-1 production”. The intraneural pressure (sciatic nerve; crushed sciatic nerve, high dose from time of injury) was “slightly elevated or close to that measured in a normal nerve” and the “inflammation, oedema and tissue distortion (light microscopy)” value (sciatic nerve; injured sciatic nerves) was “reduced the inflammation and the oedema and the tissue distortion”.
